Usually inhibition stands for the change of the read-out against control, counted positive when it falls.

Assay [1] has as its system OVA-induced airway inflammation. Nature of the assay: Ovalbumin (OVA)-induced pulmonary inflammation in mice. Type of assay: in vivo, Balb/c mice. The following applies: dexamethasone 1 mg/kg (qd). How it is done:
A compound of the present invention is tested in an OVA-induced pulmonary inflammation model in mice essentially as described in a method reported in the literature (Muriel Pichavant, Sho Goya, Eckard Hamelmann, Erwin W. Gelfand, and Dale T. Umetsu. Animal Models of Airway Sensitization. Current Protocols in Immunology. (1999) 15.18.1-15.18.13). Briefly, female Balb/c mice weighing from 18 to 20 g are sensitized by introperitoneal injection of 100 μL of saline containing 20 μg of OVA and 2 mg of aluminum hydroxide on day 1 and 14. On days 28, 29 and 30, mice are challenged once each by aerosolizing 1% ovalbumin (OVA) in phosphate buffered saline (PBS) for 20 minutes with Buxco Mass Dosing System. […] On day 32, animals from each group are anesthetized with 1% of pentobarbital sodium. The thoracic and abdominal cavities are opened and plasma is collected from centrifuged specimens. The trachea is then dissected and transected. Through the insertion of an 18-gauge catheter into the trachea, the lungs are lavaged with a total of 1.5 mL of sterile PBS and then placed into a specimen container. Cell-free BAL supernatants are obtained by centrifugation of BAL fluids. All serum and BAL supernatants are stored at −80° C. until use. Differential cell counts are performed on cytospin preparations of BAL cells for cell counting and cytokine determination. After the collection of BAL supernatants, the lungs of recipient mice are removed en bloc and fixed by an intratracheal instillation of 10% buffered formalin (in PBS). Three to six paraffin sections are obtained from the perihilar regions of recipient lungs, stained with hematoxylin and eosin, and examined under light microscopy for pathological study.

Another assay deals with BxPC-3 cells. Nature of the assay: Cell viability test, combination study, BxPC-3. Type of assay: cell-based, human. To be noted: for Ave. Inhibition rate: 72 h. On the procedure:
(§1) To evaluate biological activity of a compound in vitro, the cell viability test is applied, in which, IKKβ receptor plays an important role in cell survival and proliferation. Once the IKKβ pathway is blocked by inhibitors, a cell can go through apoptosis or death. The cell viability test provides information on cell survival after treatment with IKK inhibitors.
(§2) BxPC-3 cells (ATCC #CRL-1687; human pancreatic cancer cell line) are grown in Roswell Park Memorial Institute (RPMI) 1640 media (Gibco #A10491-01) supplemented with 10% fetal bovine serum (FBS) (Gibco #10099-141). Skov3-luc cells (ATCC, human ovarian carcinoma cell line) are grown in McCoy's 5a medium (Gibco#16600) supplemented with 10% FBS (Gibco#10099-141). For compound testing, BxPc-3 and Skov3-Luc cells are seeded at 2000 and 5000 cells/well respectively in 100 μL of corresponding media specified above for each cell line in 96-well plates 20 h prior to treatment. Cells are treated with a test compound at eight different concentrations in the presence of 0.5% DMSO for 72 h. Cell death in each well is determined by the addition of 20 μL of the One Solution Reagent (CELLTITER 96® AQueous One Solution Cell Proliferation Assay, Promega #G3580). After 2-4 h of incubation at 37° C., optical densities at 492 nm are measured with a microplate reader Inhibition of cell viability is determined by comparison to the control cells treated in the absence of a test compound.
(§3) For the combination study of the compound with other antitumor agents, BxPc-3 and Skov3-Luc cells are seeded at 2000 and 5000 cells/well respectively in 100 μL corresponding media specified above for each cell line in 96-well plates 20 h prior to the treatment. The cells are treated with the test compound at a number of concentrations for 30 minutes and then exposed to 5 ng/mL TNFα or 0.15-0.6 uM of VCR (vincristine sulfate) for an additional 72 hours. Cell death in each well is determined by the addition of 20 μL of the One Solution Reagent (CELLTITER 96® AQueous One Solution Cell Proliferation Assay, Promega #G3580). After 2-4 h of incubation at 37° C., optical densities at 492 nm are measured with a microplate reader Inhibition of cell viability is determined by comparison to the control cells treated in the absence of a test compound. For example, the results of the combination study with Example 1 are specially detailed in Table 2.

The next assay relates to Skov3-luc cells. Nature of the assay: Cell viability test, combination study, Skov3-luc. Type of assay: cell-based. The following applies: Homo sapiens, 72 h, Vincristine 0.25 μM alone, read-out: Ave. Inhibition rate. How it is done: as §1, §2
as §3, with “The cells are treated with the test compound at a number of concentrations for 30 minutes and then exposed to 5 ng/mL TNFα or 0.15-0.6 uM of VCR (vincristine sulfate) for an additional 72 hours.” left out, “For example, the results of the combination study with Example 1 are specially detailed in Table 2.” left out

The subject of assay [2] is SKOV-3x-FF-luci human ovarian cancer xenograft. Nature of the assay: Antitumor effect in SKOV-3x-FF-luci xenograft with vincristine (VCR). It is filed as in vivo, Balb/c nu/nu mice. To be noted: VCR alone at suboptimal dose, tail vein, once a week. On the procedure:
In order to expand the anti-tumor spectrum, more combination testing is explored. Based on in vitro synergistic effect of Example 1 and VCR, the compound is tested for its anti-tumor effects in SKOV-3x-FF-luci xenograft in the presence/absence of VCR. The SKOV-3x-FF-luci human ovarian cancer line (ATCC) is cultured in McCoy's 5a medium containing 10% FCS. Female Balb/c nu/nu mice (6-7 weeks old) are peritoneally injected with 0.2 mL of cell suspension containing 2×10^6 cells. Mice are divided into nine groups six days after cell implantation. The test compound is orally administered twice a day at 60 mg/kg for 20 consecutive days or at 90 mg/kg with a 2 days on and 5 days off dosing schedule. VCR at 1 or 0.3 mg/kg is administered via tail vein injection, once a week. In the combination group, VCR is given 1 h after the administration of the test compound. Mice from the control group are administered with the oral vehicle (10% Acacia at pH2.1) and intraperitoneally injected with saline. At the end of the treatment, all mice are euthanized with CO2 and tumors in the peritoneal cavity, diaphragmatic muscle, mesenterium, liver, spleen, and ovaries are harvested with surgery scissors and weighted. […] In the combination group, tumor growth is inhibited by 76% and 74%. Compared with monotherapy, statistical significance is found between combination and monotherapy.

Where a name gives a salt, the structure may show the parent alone.

Take `C[C@@H]1C[C@H]2[C@@H]3CCC4=CC(=O)C=C[C@]4(C)[C@@]3(F)[C@@H](O)C[C@]2(C)[C@@]1(O)C(=O)CO` [Dexamethasone, reference compound]: in assay [1], the “decrease of IL-13 in BALF” value is listed as 77%.
Regarding `CC[C@]1(O)C[C@H]2CN(CCc3c([nH]c4ccccc34)[C@@](C(=O)OC)(c3cc4c(cc3OC)N(C=O)[C@H]3[C@@](O)(C(=O)OC)[C@H](OC(C)=O)[C@]5(CC)C=CCN6CC[C@]43[C@@H]65)C2)C1` [Vincristine, vincristine sulfate, reference compound], the inhibition at 0.15 µM with BxPC-3 cells (Homo sapiens, BXPC-3, 72 h, Vincristine 0.15 μM alone, read-out: Ave. Inhibition rate) was found to be 5.73%. The “Ave. Inhibition rate” value with BxPC-3 cells (Vincristine 0.15 μM alone) worked out at 9.48%. In addition, the inhibition at 0.25 µM with Skov3-luc cells came to 25%. Also, the tumor growth inhibition in assay [2] was 38%.
On to TNFα, for which, in the assay with BxPC-3 cells (TNFα 5 ng/mL alone), the “Ave. Inhibition rate” value was determined as 5.73%.

(Values after patent US8501166B2, “Pyrimidinyl indole compounds” (Hutchison Medipharma Limited, priority 2010, dated 2013).)
